Laboratory results published in patent US20210059961A1, “CANNABINOID DOSING REGIME FOR ACNE” (priority 2018, published 2021).

Legend:
airway obstruction = conditions: intravenous, sensitized guinea-pigs; cited from earlier work
anandamide = conditions: in vitro; cited from earlier work
[1] = Open-label study in patients with acne vulgaris: study drug plasma levels; assay type: in vivo, human
Description: Eligible subjects were enrolled within 14 days after the Screening Visit. Assessments for safety (CBC, chemistry, urinalysis, and vital signs) were obtained at the Baseline Visit (Day 1). If the Screening and Baseline Visits were not conducted on the same day, a UPT for WOCBP, lesion counts on the face, an Investigator's Global Assessment (IGA) for facial acne and a UDS were repeated. Baseline photographs of the face and a blood sample for Baseline study drug plasma levels were obtained. […] Cutaneous tolerability assessments were conducted at one hour after the first application. […]
Safety was the primary outcome measure. The safety outcomes were measured through assessment of: • AEs monitored from time of consent through the end of study. • Cutaneous tolerability (erythema, scaling, dryness, burning/stinging, and irritant/allergic contact dermatitis) collected at Baseline, Day 14, Day 28, and Day 35 and graded using the following scale: 0, None; 1, Slight; 2, Moderate; 3, Severe. • Vital signs (temperature, blood pressure, and pulse) obtained at Baseline, Day 14, Day 28 and Day 35. • Complete blood count (CBC), chemistry, and urinalysis at Baseline and at Day 28. Blood levels of study drug will be measured at Baseline and prior to dosing (trough level) on Day 14, Day 28, and Day 35. […]

[2] = Skin permeation of CBD, Franz-type diffusion cell; assay type: in vitro ADME
Protocol: Dermatomed skin from a single donor was mounted in a Franz-type diffusion cell (0.55 cm^2 receptor fluid exposure surface area) and dosed with 5 ul of 2-[3-methyl-6-(1-methylethenyl)-2-cyclohexen-1-yl]-5-pentyl-1,3-benzenediol (CBD), BTX 1503 5% Solution, formulated in an mixture of a volatile solvent (hexylmethyldisiloxane/polymethylsiloxane—93% w/w), and residual solvent (arlamol E—2% w/w) at a concentration of 5.0% (w/w; 35.5 mg/ml). Following dosing, receptor phase samples were collected at 4, 10, 24 and 48 hours; after which the study was terminated.
The residual formulation was removed by tape stripping and the epidermis and dermis separated by blunt dissection. The levels of CBD in the epidermis, dermis, and receptor fluid samples were then analyzed using a bioanalytical method with LC-MS/MS detection.

[3] = tested on: immortalized human sebocytes; conditions: cited from earlier work
cardiac inflammation = conditions: injected into rats; cited from earlier work
[4] = Healthy volunteer study of single and multiple-dose BTX 1503 5% Solution (BTX.2017.001): pharmacokinetics, safety; assay type: in vivo, human; conditions: for mean CBD trough level Day 15: multiple dose phase
Protocol: The pharmacokinetics (PK) of single and multiple-dose administration of BTX 1503 5% Solution were evaluated in a healthy volunteer study. In this study, BTX 1503 5% Solution was applied as a single dose either QD or BID (12 hrs apart) on Day 1 followed by a 6-day washout period, then either QD or BID for 14 days (Day 8 to Day 21). Five subjects were enrolled in each cohort and doses were escalated for each sequential cohort enrolled with the following doses. • Cohort 1: 37.5 mg CBD/day or 0.066 mg/cm^2/day^a applied as 1 mL of BTX 1503 5% (w/w) QD • Cohort 2: 75 mg CBD/day or 0.133 mg/cm^2/day applied as 1 mL BTX 1503 5% (w/w) BID • Cohort 3: 112.5 mg CBD/day or 0.199 mg/cm^2/day applied as 3 mL of BTX 1503 5% (w/w) QD • Cohort 4: 225 mg CBD/day or 0.398 mg/cm^2/day applied as 3 mL of BTX 1503 5% (w/w) BID Area of application assumed to be 565 cm^2 (i.e., on the face), which is reported by the European Union Scientific Committee on Consumer Safety (SCCS) to be half of the surface area for a female head (SCCS Notes of Guidance for the Testing of Cosmetic Substances and Their Safety Evaluation, 8th edition, 2012; Table 2).
Blood samples were taken for PK assessments on Day 1 (Baseline) at pre-dose (15 mins before dosing), 30, 60 and 90 mins and 2, 2.5, 3, 4, 6, 8 and 12 hrs, and 24 hrs after the first single dose. For participants that received BID dosing, samples were also taken at 30, 60 and 90 mins and 2, 2.5, 3, 4, 6, and 8 hrs after the second dose on Day 1.
During the multiple dose (14-day) phase, trough levels were obtained before the morning application on Day 15. On Day 21, blood samples were taken for PK assessments at pre-dose (15 mins before dosing), 30, 60 and 90 mins and 2, 2.5, 3, 4, 6, 8 and 12 hrs, 24 hrs and 48 hrs after the morning dose. For participants that received BID dosing, samples were also be taken at 30, 60 and 90 mins and 2, 2.5, 3, 4, 6, and 8 hrs after the second dose on Day 21. A sample was obtained on Day 23, 48 hrs after the last morning dose. […]

[5] = biological target: human vanilloid receptor type 1 (VR1) (Homo sapiens, UniProt Q8NER1); conditions: in vitro; cited from earlier work
Chain of human vanilloid receptor type 1 (VR1) (Q8NER1 whole entry): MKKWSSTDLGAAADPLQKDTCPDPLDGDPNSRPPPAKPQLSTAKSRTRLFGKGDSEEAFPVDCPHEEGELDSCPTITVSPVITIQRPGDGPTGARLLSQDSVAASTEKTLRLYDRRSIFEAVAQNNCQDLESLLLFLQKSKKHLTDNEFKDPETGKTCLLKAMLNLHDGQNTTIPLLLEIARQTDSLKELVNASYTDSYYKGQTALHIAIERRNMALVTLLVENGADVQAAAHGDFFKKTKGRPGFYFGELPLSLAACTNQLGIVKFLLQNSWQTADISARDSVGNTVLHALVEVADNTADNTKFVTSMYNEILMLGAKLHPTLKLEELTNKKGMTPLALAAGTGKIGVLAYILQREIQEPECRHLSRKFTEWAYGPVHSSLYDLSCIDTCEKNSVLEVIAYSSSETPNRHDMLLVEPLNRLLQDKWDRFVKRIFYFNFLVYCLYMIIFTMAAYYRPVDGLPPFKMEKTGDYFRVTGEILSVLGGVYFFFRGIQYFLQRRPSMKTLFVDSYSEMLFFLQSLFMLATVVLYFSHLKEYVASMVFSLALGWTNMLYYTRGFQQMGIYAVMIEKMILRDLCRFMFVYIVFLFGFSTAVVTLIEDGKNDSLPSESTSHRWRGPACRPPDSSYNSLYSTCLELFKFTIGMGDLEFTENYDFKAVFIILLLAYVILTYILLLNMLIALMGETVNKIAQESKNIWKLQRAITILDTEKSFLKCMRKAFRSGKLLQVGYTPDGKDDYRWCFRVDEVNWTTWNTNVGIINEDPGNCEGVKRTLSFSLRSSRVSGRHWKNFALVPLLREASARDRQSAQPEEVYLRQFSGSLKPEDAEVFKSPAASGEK

[6] = 5 ul of 5.0% w/w solution, 48-hour exposure

SMILES: C=C(C)C1CCC(C)=CC1c1c(O)cc(CCCCC)cc1O (stereo not drawn) [CBD, 2-[3-methyl-6-(1-methylethenyl)-2-cyclohexen-1-yl]-5-pentyl-1,3-benzenediol]
- effect on airway obstruction (airway obstruction): reduced airway obstruction
- effect on anandamide (anandamide): inhibit
- subjects with circulating levels of CBD ([1]; Day 35 visit, 7 days after final dose): Nine
- study drug (CBD) plasma levels ([1]; throughout the study, 225 mg CBD per day): low
- CBD in the receptor phase (skin permeation) [2, 6]: < 278 ng/cm^2
- CBD in the receptor phase (skin permeation), percent of applied dose [2, 6]: less than 0.081%
- dermal deposition of CBD ([2]; 48-hour period): 4.54 % of the applied dose
- dermis concentration ([2]; 48-hour period): 8,408 ng/cm^2
- dermis concentration per tissue ([2]; 48-hour period): 1,933 ng/g of tissue
- dermis concentration, volume equivalent ([2]; 48-hour period): ~1,933 ng/mL
- epidermal deposition of CBD ([2]; 48-hour period): 13.17 % of the applied dose
- effects on immortalized human sebocytes [3]: lipostatic, anti-proliferative, and anti-inflammatory effects
- effect on cardiac inflammation (cardiac inflammation): attenuated cardiac inflammation
- mean pre-dose CBD level Day 21 ([4]; Cohort 1: 1 mL QD): 0.545 ng/mL
- mean pre-dose CBD level Day 21 ([4]; Cohort 2: 1 mL BID): 0.770 ng/mL
- mean CBD trough level Day 15 ([4]; Cohort 2: 1 mL BID): 0.781 ng/mL
- mean pre-dose CBD level Day 21 ([4]; Cohort 3: 3 mL QD): 0.715 ng/mL
- mean CBD trough level Day 15 ([4]; Cohort 3: 3 mL QD): 0.525 ng/mL
- CBD trough level Day 15 of the outlier subject ([4]; Cohort 4, one subject): 5.99 ng/mL
- mean pre-dose CBD level Day 21 ([4]; Cohort 4: 3 mL BID): 1.553 ng/mL
- mean CBD trough level Day 15 ([4]; Cohort 4: 3 mL BID, all subjects): 2.11 ng/mL
- mean CBD trough level Day 15 without outlier subject ([4]; Cohort 4: 3 mL BID, one outlier excluded): 1.16 ng/mL
- Cmax Day 21 relative to Day 1 Cmax, mean ([4]; accumulation after 14 days dosing): 1.92 times
- effect on human vanilloid receptor type 1 (VR1) [5]: stimulate
